{"source": "patent US12398154B2", "about": "“Azaquinazoline pan-KRas inhibitors” (Mirati Therapeutics, Inc., priority 2020, dated 2025)", "key": {"KRas G12V": {"target": "KRas G12V (Homo sapiens, UniProt P01116, G12V)", "sequence (P01116 1-169 isoform P01116-2 G12V)": "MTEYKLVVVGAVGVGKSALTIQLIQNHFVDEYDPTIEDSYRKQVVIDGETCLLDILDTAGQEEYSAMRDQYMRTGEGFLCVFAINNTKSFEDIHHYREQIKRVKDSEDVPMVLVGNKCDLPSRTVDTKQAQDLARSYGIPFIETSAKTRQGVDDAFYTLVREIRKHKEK", "protocol": "(§2) The ability of a compound to bind to KRas was measured using a TR-FRET displacement assay. […] After a 60-minute incubation at room temperature, the reaction was measured using a BMG LABTECH CLARIO star Plus via TR-FRET. […] The POC values were fit to a 4-parameter IC50 equation and the IC50 value reported."}, "pERK in MKN1 cells": {"system": "pERK in MKN1 cells", "test": "Inhibition of KRas phosphorylation of ERK (Cisbio HTRF pERK assay)", "details": "Homo sapiens, MKN-1, 3 h, read-out: Inhibition (HTRF IC50) of KRas-mediated Phosphorylation of ERK, MKN1"}, "[1]": {"system": "phospho-ERK in NCI-H460 (Q61H) cells", "test": "Inhibition of KRas-mediated phosphorylation of ERK (in-cell western)", "type": "cell-based", "details": "3 hours compound, phospho-ERK normalized to GAPDH", "in_short": "(§1)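 IC50 came from 4-parameter dose-response fits of phospho-ERK (Thr202/Tyr204)/GAPDH signal, expressed as % DMSO control. Compounds were applied for 3 h at 0.5% DMSO before fixation, methanol permeabilization and antibody imaging by in-cell western.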"}, "[2]": {"system": "phospho-ERK in AsPC-1 (G12D) cells", "test": "Inhibition of KRas-mediated phosphorylation of ERK (in-cell western)", "type": "cell-based", "details": "3 hours compound, phospho-ERK normalized to GAPDH", "in_short": "as §1"}, "[3]": {"system": "phospho-ERK in NCI-H727 (G12V) cells", "test": "Inhibition of KRas-mediated phosphorylation of ERK (in-cell western)", "type": "cell-based", "details": "3 hours compound, phospho-ERK normalized to GAPDH", "in_short": "as §1"}, "KRas G12R": {"target": "KRas G12R (Homo sapiens, UniProt P01116, G12R)", "sequence (P01116 1-169 isoform P01116-2 G12R)": "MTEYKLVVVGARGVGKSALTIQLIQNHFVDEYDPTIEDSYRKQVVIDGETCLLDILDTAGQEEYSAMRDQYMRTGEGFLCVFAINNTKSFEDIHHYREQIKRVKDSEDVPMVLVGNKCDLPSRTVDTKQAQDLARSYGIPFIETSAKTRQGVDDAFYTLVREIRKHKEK", "protocol": "as §2"}, "KRas G12D": {"target": "KRas G12D (Homo sapiens, UniProt P01116, G12D)", "sequence (P01116 1-169 isoform P01116-2 G12D)": "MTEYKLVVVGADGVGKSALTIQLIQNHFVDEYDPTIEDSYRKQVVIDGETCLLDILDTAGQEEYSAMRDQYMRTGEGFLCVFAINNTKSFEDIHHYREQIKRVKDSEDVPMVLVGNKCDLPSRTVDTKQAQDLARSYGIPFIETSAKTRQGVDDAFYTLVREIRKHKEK", "test": "biochemical", "protocol": "as §2"}, "pERK in PSN1 cells": {"system": "pERK in PSN1 cells", "test": "Inhibition of KRas phosphorylation of ERK (Cisbio HTRF pERK assay)", "details": "Homo sapiens, PSN1, 3 h, read-out: Inhibition (HTRF IC50) of KRas-mediated Phosphorylation of ERK, PSN1"}}, "data": [{"molecule": "CCc1c(F)ccc2cc(O)cc(-c3ncc4c(N5C[C@H](O)C[C@@H](O)C5)nc(OC[C@@]56CCCN5C[C@H](F)C6)nc4c3F)c12", "note": "[Example 296, (3R,5R)-1-(7-(8-ethyl-7-fluoro-3-hydroxynaphthalen-1-yl)-8-fluoro-2-(((2R,7aS)-2-fluorohexahydro-1H-pyrrolizin-7a-yl)methoxy)pyrido[4,3-d]pyrimidin-4-yl)piperidine-3,5-diol]", "values": [{"measurement": "IC50", "setting": "KRas G12V", "result": "≤ 2", "unit": "nM"}, {"measurement": "IC50", "setting": "pERK in MKN1 cells", "result": 53, "unit": "nM"}, {"measurement": "IC50", "setting": "[1]", "result": 619, "unit": "nM"}, {"measurement": "IC50", "setting": "[2]", "result": 2200, "unit": "nM"}, {"measurement": "IC50", "setting": "[3]", "result": 2080, "unit": "nM"}, {"measurement": "IC50", "setting": "KRas G12R", "result": "≤ 2", "unit": "nM"}, {"measurement": "IC50", "setting": "KRas G12D", "result": 4, "unit": "nM"}, {"measurement": "IC50", "setting": "pERK in PSN1 cells", "result": "≥ 10000", "unit": "nM"}]}]}
